# Read-outs that look alike come from different tables or passages of the source.
# How the values were obtained:
# AE-17 = assay: MTT viability assay (IC50); format: cell-based, mouse; settings: AE-17, ~60% confluency
# From the text: The following cell lines used in this study were obtained from ATCC, unless specified otherwise: Human T lymphoma cells Jurkat, human mesothelioma cells Meso-I, MM-BI, Ist-Mes, Ist-Mes-2 (Pass, H. I. et al. Characteristics of nine newly derived mesothelioma cell lines. Ann. Thorac. Surg. 59, 835-844 (1995)), human breast cancer cells MCF-7 (erbB2-low) and MDA-MB-453 (erbB2-high), human colorectal cells HCT-116, human hepatocarcinoma cells Huh-7, mouse mesothelioma cells AE17 (Jackaman, C. et al. IL-2 intratumoral immunotherapy enhances CD8+ T cells that mediate destruction of tumor cells and tumor-associated vasculature: a novel mechanism for IL-2. J. Immunol. […]
# (§1) Toxicity of α-TOS, VE11S (“VES”), MitoVE3S, MitoVE5S, MitoVE7S, MitoVE9S, MitoVE11S (“MitoVES”), MitoVE11AE (“MitoVEAE”), MitoVE11F (“MitoVEF”), MitoVE11M (“MitoVEM”), and VES4TPP towards cancer cells was assessed on the basis of IC50, as detailed in Turanek, J., et al. ((2008). Liposomal formulation of vitamin E analogs as an efficient and selective anti-cancer treatment. Clin. Cancer Res. (submitted)). […]
# malignant cells = assay: Apoptosis assays of FIG. 2 (Annexin V method); format: cell-based
# Procedure: Jurkat (A, G), HCT-116 (B), MCF-7 (C), MDA-MB-453 (D), and Meso-2 cells (E) were exposed to MitoVES at concentrations 1-50 μM (A-F), or to VES4TPP or α-TOS at 50 μM (B). At the times shown, the cells were harvested and assessed for apoptosis. […] Apoptosis data shown are derived from three independent experiments and are presented as mean values±S.D., the micrographs are representative images of at least three independent experiments.
# as §1
# EAhy926 cells = assay: Apoptosis in proliferating and arrested endothelial cells (FIG. 6); format: cell-based, human; settings: EAhy926 at ~50% or 100% confluency
# Procedure: Parental EAhy926 cells were seeded in 24-well plate so that they would acquire after an overnight recuperation ˜50% or 100% confluency, while their ρ^0 counterparts were seeded at 50% confluency. The proliferating and confluent cells were then exposed to MitoVES at concentrations and for times shown, and assessed for apoptosis level by the Annexin V-binding method (A) and for ROS accumulation using the fluorescent probe DHE (B).
# as §1
# [1] = cited from earlier work
# [2] = pH 6.2 versus pH 7.4 of the medium; cited from earlier work
SMILES,IC50 (AE-17),"apoptosis in malignant versus normal equivalent cell types (malignant cells; FIG. 2, exception dividing endothelial cells)",fold more apoptogenic / more active than α-TOS in cancer cells (malignant cells; relative to α-TOS),apoptosis in proliferating versus arrested endothelial cells (EAhy926 cells),fold higher percentage in the protonated form ([1]; acidic pH of 6.2-6.4 of the tumour interstitium versus neutral pH),fraction deprotonated ([1]; at neutral pH),pKa [1],pKa ([1]; listed as α-tocopheryl succinate),uptake of the compound at lower pH [2]
Cc1c(C)c2c(c(C)c1OC(=O)CCC(=O)[O-])CCC(C)(CCCCCCCCCCC[P+](c1ccccc1)(c1ccccc1)c1ccccc1)O2 (stereo not shown) [MitoVE11S],3.1 ± 0.7 µM,causes apoptosis selectively in malignant cells,up to 50 fold,causes apoptosis in proliferating but not arrested endothelial cells,,,,,
"Cc1c(C)c2c(c(C)c1OC(=O)CCC(=O)O)CC[C@@](C)(CCC[C@H](C)CCC[C@H](C)CCCC(C)C)O2 [α-TOS, α-tocopheryl succinate, reference compound]",33 ± 5 µM,,,,10-15 fold,~98%,< 6,5.6,about twice as much
